“And” between values parts separate entries of the source, which are not always exact repeats. Equal entries are not always repeated. “Also recorded” adds a separate entry of the source. Where two headings read alike, the source gives them in different places. Each block holds one compound with its values, some of them ahead of it.
Key:
[1] = 4 SCD subjects, subcutaneous or oral, 30-500 days; cited from earlier work
HbF [2] = conditions: same non-human primates (n = 14); cited from earlier work
nucleotide pool sizes = conditions: cited from earlier work
[3] = set-up: method as in ref 40,59-61,63-69 (main text); 25;37-45 (protocol); conditions: 25;37-45 (protocol); cited from earlier work
[4] = cited from earlier work
[5] = THU solubility and storage stability; format: physicochemical; conditions: stored at -20°C; 1 year study and about 4 years re test
Protocol: Prior to administration, a glass bottle containing THU will be brought to room temperature, and dissolved in 2 ml water with a further dilution to a final volume of 10 ml, to create a solution with a final concentration that is determined by the amount of drug in the glass vial (THU is soluble to at least 100 mg/ml in water). Using this final concentration, a volume of solution containing the appropriate dose will be removed, diluted further with water to a total volume of 30ml and given by mouth. The time between reconstitution of drug and oral administration should not exceed 60 minutes, and remaining solution is to be discarded.

[6] = in vivo; cited from earlier work
[7] = set-up: method as in ref 26 (a number printed in a supplementary file, which may have a reference list of its own: not looked up in the article's list); conditions: cited from earlier work
HbF [8] = conditions: cited from earlier work
mammary tumors = conditions: intraperitoneal 125-250 mg/kg thrice weekly for 6 months, rats surviving to 18 months; cited from earlier work
[9] = cited from earlier work; remark: listed apart in the source
[10] = cited from earlier work; remark: listed apart in the source

SMILES: Nc1ncn([C@@H]2O[C@H](CO)[C@@H](O)[C@H]2O)c(=O)n1 [5-azacytidine]
marrow toxicity [1]: No marrow toxicity was observed
greater increases in HbF than cytarabine or hydroxyurea (HbF [2]): 2 to 20 fold

stability of bulk drug [5]: demonstrate THU stability
SMILES: O=C1NC(O)CCN1[C@@H]1O[C@H](CO)[C@@H](O)[C@H]1O (stereo partly drawn) [THU, tetrahydrouridine]
effect on nucleotide pool sizes (nucleotide pool sizes): no effect
toxicity / side effects in animals and humans [3]: No toxicities have been found; also recorded: have not identified any toxic side-effects; also recorded: no toxic side-effects have been identified; also recorded: benign toxicity profile; also recorded: no side effects observed; also recorded: has not caused toxicity
solubility in water [4]: at least 100 mg/ml
share of elimination by renal excretion [6]: ~ 50%

SMILES: Nc1ccn([C@@H]2O[C@H](CO)[C@@H](O)C2(F)F)c(=O)n1 [gemcitabine]
oral bioavailability ([7]; with THU co-administration): ~ 40%
oral bioavailability ([7]; without THU): ~ 10%

SMILES: NC(=O)NO [hydroxyurea]
mean change in HbF after 2 years of treatment (HbF [8]; SCD patients with no HbF response in the pivotal trial): ~0% and 0.3%
adult SCD patients in whom HbF increased for 2 years (HbF [8]; hydroxyurea 15–35 mg/kg, pivotal trial): approximately 50%
subjects who did not respond (no elevated HbF after two years) (HbF [8]; pivotal multi-center trial): approximately 50%
Average HbF increases at 2 years (HbF [8]; pivotal trial): 3.6%
average total hemoglobin increase (HbF [8]; pivotal trial): 0.6 g/dL
incidence of mammary tumors (mammary tumors): increased the incidence of mammary tumors
genotoxicity ([9]; package insert): genotoxic in a wide range of test systems
neutrophil recovery time ([9]; pancellular hematologic toxicities, ref AHFS Drug Information, 2000): up to 2 weeks

SMILES: Nc1ccn([C@@H]2O[C@H](CO)[C@@H](O)[C@@H]2O)c(=O)n1 [cytarabine]
greater exposure in mice versus monkey dose for dose [10]: more than 100 fold

Reference: article PMC5589090 (PLoS Medicine, 2017)
